In turn, `COCCOc1ccc2c(C3C(=O)Nc4ccc(C#N)cc43)nccc2c1` (stereo not shown) [Example 3, 3-[6-(2-Methoxyethoxy)isoquinolin-1-yl]-2-oxo-2,3-dihydro-1H-indole-5-carbonitrile] showed a melting point of 214 to 219 °C.
